# What was measured:
# [1] = tested on: human LDL receptor gene promoter region coupled to firefly Luciferase reporter gene in Hep-G2 cell line; assay: In vitro determination of LDL receptor induction using the Luciferase assay; format: cell-based; settings: for LDL-receptor induction in %, compared with control: comparative test
# Description: 1) In vitro Determination of LDL Receptor Induction Using the Luciferase Assay
# LDL-receptor induction is determined using the Luciferase assay as follows: for this purpose, a regulatory DNA fragment (4 kb) of the human LDL receptor gene which contains the complete promoter region is coupled to the firefly Luciferase reporter gene and stably transfixed into a Hep-G2 cell line. Cells from this line were seeded out on collagen-coated 96-well plates in MEM (minimum essential medium). After 24 hours in culture, the test substances, dissolved in DMSO, were added in final concentrations of 10 nM to 10 μM (final DMSO concentration=2%). The substances were incubated for 12-18 hours overnight (4 wells/conc. in each case), then D-luciferin was added as substrate for the Luciferase, and the luminescence was measured. The measured luminescence as a percentage of the control (control=100%) incubated only with DMSO indicates the extent of the relative LDL-receptor induction (Table 2).
# Further details of the method are described in: Current Protocols in Molecular Biology, F. M. Ausubel, R. Brent, R. E. Kingston, D. D. Moore, J. G. Seidman, J. A. Smith and Kevin Struhl editors, J. Wiley and Sons Inc., U.S.A.
# A comparative test was carried out by the Luciferase assay described above using 2,4-dichloro-5-(3,5-dimethylpiperidinosulfamoyl)benzoic acid and the compound from Example 42. [drawing 8]
# hyperlipidemic hamsters = assay: In vivo determination of reduction in LDL cholesterol in hyperlipemic hamsters; design: species or system male Syrian hamsters; settings: vs placebo-treated control
# Excerpt: 2) In vivo Determination of Reduction in LDL Cholesterol in Hamsters.
# Cholesterol-lowering effect of LDL-receptor inducers in hyperlipemic hamsters
# In this animal experiment, the effect of LDL-receptor inducers after bolus administration to hamsters on a lipid-rich diet was investigated.
# The test animals used were male Syrian hamsters (Charles River) with an average body weight of 100-120 g at the start of adaptation. The animals were divided into groups (n=6) on the basis of body weight. Severe hyperlipidemia was induced by feeding with a diet supplemented with 15% butter and 3% cholesterol. The treatment started after preliminary feeding for 2 weeks. The test substances were administered orally by gavage once a day over a period of 10 days. The plasma lipid level was analyzed after 10 days.
# [2] = test compound 1.5 μM, control (DMSO only)=100%, Hep-G2 reporter line
# [3] = test compound 0.15 μM, control (DMSO only)=100%, Hep-G2 reporter line
# [4] = test compound 0.05 μM, control (DMSO only)=100%, Hep-G2 reporter line
# [5] = 20 mg/kg p.o. once a day for 10 days
# [6] = 10 mg/kg p.o. once a day for 10 days
# [7] = 40 mg/kg p.o. once a day for 10 days
# [8] = test compound 0.15 μM, control (DMSO only)=100%, Hep-G2 reporter line, 0.15 µM
compound,measurement,setting,value
CN1CCN(c2cc(NCCCc3ccccc3)c(S(=O)(=O)N(C)c3ccccc3)cc2C(=O)N(C)c2ccccc2)CC1 [Example 2],LDL-receptor induction (% of control),[1]; [2],225% (1.5 μM)
CN1CCN(c2cc(NCCc3ccccc3)c(S(=O)(=O)N(C)c3ccccc3)cc2C(=O)N(C)c2ccccc2)CC1 [Example 3],LDL-receptor induction (% of control),[1]; [2],276% (1.5 μM)
CN1CCN(c2cc(NC3CCN(Cc4ccccc4)CC3)c(S(=O)(=O)N(C)c3ccccc3)cc2C(=O)N(C)c2ccccc2)CC1 [Example 4],LDL-receptor induction (% of control),[1]; [3],190% (0.15 μM)
CN1CCN(c2cc(N3CCC(Cc4ccccc4)CC3)c(S(=O)(=O)N(C)c3ccccc3)cc2C(=O)N(C)c2ccccc2)CC1 [Example 9],LDL-receptor induction (% of control),[1]; [3],170% (0.15 μM)
CN1CCN(c2cc(NC3CCN(Cc4ccccc4)CC3)c(S(C)(=O)=O)cc2C(=O)N(C)c2ccccc2)CC1 [Example 14],LDL-receptor induction (% of control),[1]; [2],176% (1.5 μM)
CN(C(=O)c1cc(S(=O)(=O)N(C)c2ccccc2)c(N2CCC(Cc3ccccc3)CC2)cc1NCCN1CCCC1)c1ccccc1 [Example 22],LDL-receptor induction (% of control),[1]; [3],224% (0.15 μM)
CN(C(=O)c1cc(S(=O)(=O)N(C)c2ccccc2)c(N2CCC(c3ccccc3)CC2)cc1NCCN1CCCC1)c1ccccc1 [Example 25],LDL-receptor induction (% of control),[1]; [4],152%
same,LDL-receptor induction (% of control),[1]; [2],346%
CN1CCN(c2cc(N3CCC(Cc4ccccc4)CC3)c(S(C)(=O)=O)cc2C(=O)N2CCCCC2)CC1 [Example 30],LDL-receptor induction (% of control),[1]; [3],199%
same,LDL-receptor induction (% of control),[1]; [2],255%
COCCCNC(=O)c1cc(S(C)(=O)=O)c(N2CCC(c3ccccc3)CC2)cc1N1CCN(C)CC1 [Example 34],LDL-receptor induction (% of control),[1]; [3],210%
same,LDL-receptor induction (% of control),"[1]; test compound 4 μM, control (DMSO only)=100%, Hep-G2 reporter line",291%
CN1CCN(c2cc(N3CCC(c4ccccc4)CC3)c(S(=O)(=O)N3CCCCC3)cc2C(=O)N2CCCCC2)CC1 [Example 37],LDL-receptor induction (% of control),[1]; [3],204%
same,LDL-receptor induction (% of control),[1]; [2],227%
same,Relative change in plasma LDL cholesterol,hyperlipidemic hamsters; [5],−31%
same,Relative change in plasma total cholesterol,hyperlipidemic hamsters; [5],−21%
same,Relative change in plasma triglycerides,hyperlipidemic hamsters; [5],−46%
"CCN(CC)C(=O)c1cc(S(=O)(=O)Cc2ccccc2)c(N2CCC(c3ccccc3)CC2)cc1N(CC)CCN(C)C [Example 42, 2-[(2-Dimethylaminoethyl)ethylamino]-N,N-diethyl-5-phenylmethane-sulfonyl-4-(4-phenylpiperidin-1-yl)benzamide]",activity at 0.05 µM,"[1]; Homo sapiens, HepG2, test compound 0.05 μM, control (DMSO only)=100%, Hep-G2 reporter line",149%
same,"LDL-receptor induction in %, compared with control",[1]; 0.05 μM,204%
same,"LDL-receptor induction in %, compared with control",[1]; 0.15 μM,219%
same,"LDL-receptor induction in %, compared with control",[1]; 1.5 μM,250%
same,"LDL-receptor induction in %, compared with control",[1]; 4 μM,278%
CCCCCNC(=O)c1cc(S(C)(=O)=O)c(N2CCC(Cc3ccccc3)CC2)cc1NCCN1CCCC1 [Example 53],LDL-receptor induction (% of control),[1]; [4],197%
same,LDL-receptor induction (% of control),[1]; [3],221%
same,Relative change in plasma LDL cholesterol,hyperlipidemic hamsters; [6],−52%
same,Relative change in plasma total cholesterol,hyperlipidemic hamsters; [6],−7%
same,Relative change in plasma triglycerides,hyperlipidemic hamsters; [6],+21%
same,Relative change in plasma LDL cholesterol,hyperlipidemic hamsters; [5],−57%
same,Relative change in plasma total cholesterol,hyperlipidemic hamsters; [5],−16%
same,Relative change in plasma triglycerides,hyperlipidemic hamsters; [5],−11%
same,Relative change in plasma LDL cholesterol,hyperlipidemic hamsters; [7],−58%
same,Relative change in plasma total cholesterol,hyperlipidemic hamsters; [7],−17%
same,Relative change in plasma triglycerides,hyperlipidemic hamsters; [7],−23%
CCCCCNC(=O)c1cc(S(C)(=O)=O)c(N2CCC(c3ccccc3)CC2)cc1NCCN1CCCC1 [Example 54],LDL-receptor induction (% of control),[1]; [8],223% (0.15 μM)
COCCCNC(=O)c1cc(S(C)(=O)=O)c(N2CCC(Cc3ccccc3)CC2)cc1NCCN1CCCC1 [Example 57],LDL-receptor induction (% of control),[1]; [3],222% (0.15 μM)
COCCCNC(=O)c1cc(S(C)(=O)=O)c(N2CCC(Cc3ccccc3)CC2)cc1N(C)CCN(C)C [Example 62],LDL-receptor induction (% of control),[1]; [4],205% (0.05 μM)
CN(C)CCN(C)c1cc(N2CCC(Cc3ccccc3)CC2)c(S(C)(=O)=O)cc1C(=O)N1CCCCC1 [Example 67],LDL-receptor induction (% of control),[1]; [3],203% (0.15 μM)
CCCCCNC(=O)c1cc(S(=O)(=O)Cc2ccccc2)c(N2CCC(c3ccc(F)cc3)CC2)cc1N(CC)CCN(C)C [Example 76],LDL-receptor induction (% of control),[1]; [3],244% (0.15 μM)
CCCCCNC(=O)c1cc(S(=O)(=O)Cc2ccccc2)c(N2CCC(c3ccc(C)cc3)CC2)cc1N(CC)CCN(C)C [Example 78],LDL-receptor induction (% of control),[1]; [3],200% (0.15 μM)
CCN(CC)C(=O)c1cc(S(=O)(=O)Cc2ccc(F)cc2F)c(N2CCC(c3ccccc3)CC2)cc1N(CC)CCN(C)C [Example 82],LDL-receptor induction (% of control),[1]; [3],227% (0.15 μM)
CCN(CC)C(=O)c1cc(S(=O)(=O)Cc2ccc(C)cc2)c(N2CCC(c3ccccc3)CC2)cc1NCCN1CCCC1 [Example 83],LDL-receptor induction (% of control),[1]; [3],212% (0.15 μM)
CCN(CC)C(=O)c1cc(S(=O)(=O)Cc2cccc(OC)c2)c(N2CCC(c3ccccc3)CC2)cc1NCCN1CCCC1 [Example 84],LDL-receptor induction (% of control),[1]; [4],240% (0.05 μM)
CCN(CC)C(=O)c1cc(S(=O)(=O)Cc2cccc(OC(F)(F)F)c2)c(N2CCC(c3ccccc3)CC2)cc1NCCN1CCCC1 [Example 91],LDL-receptor induction (% of control),[1]; [4],231% (0.05 μM)
CCN(CC)C(=O)c1cc(S(=O)(=O)Cc2cc(OC)cc(OC)c2)c(N2CCC(c3ccccc3)CC2)cc1N(CC)CCN(C)C [Example 96],LDL-receptor induction (% of control),[1]; [4],196% (0.05 μM)
CCN(CCN(C)C)c1cc(N2CCC(c3ccccc3)CC2)c(S(=O)(=O)Cc2ccccc2)cc1C(=O)NCCCCCO [Example 107],LDL-receptor induction (% of control),[1]; [4],288% (0.05 μM)
CCN(CC)C(=O)c1cc(S(=O)(=O)Cc2ccc(C(F)(F)F)cc2)c(N2CCC(c3ccccc3)CC2)cc1N(CC)CCN(C)C [Example 113],LDL-receptor induction (% of control),[1]; [4],217% (0.05 μM)
CCN(CC)C(=O)c1cc(S(=O)(=O)Cc2ccc(C#N)cc2)c(N2CCC(c3ccccc3)CC2)cc1N(CC)CCN(C)C [Example 116],LDL-receptor induction (% of control),[1]; [4],235% (0.05 μM)
"CCCCCNC(=O)c1cc(S(C)(=O)=O)c(N2CCC(c3ccccc3)CC2)cc1NCCN1CCCC1.CS(=O)(=O)O [Example 141, 2-[NH-Ethyl-N-pyyrolidinyl]-NH-pentyl-5-methylsulfonyl-4-(4-phenylpiperidin-1-yl)benzamide]",LDL-receptor induction (% of control),[1]; [3],280% (0.15 μM)
"CCCCCNC(=O)c1cc(S(C)(=O)=O)c(N2CCC(c3ccccc3)CC2)cc1NCCN1CCCC1.Cc1ccc(S(=O)(=O)O)cc1 [Example 142, 2-[NH-Ethyl-N-pyrrolidinyl]-NH-pentyl-5-methylsulfonyl-4-(4-phenylpiperidin-1-yl)benzamide]",LDL-receptor induction (% of control),[1]; [3],281% (0.15 μM)
"CCCCCNC(=O)c1cc(S(C)(=O)=O)c(N2CCC(c3ccccc3)CC2)cc1NCCN1CCCC1 [Example 143, 2-[NH-Ethyl-N-pyrrolidinyl]-NH-pentyl-5-methylsulfonyl-4-(4-phenylpiperidin-1-yl)benzamide]",LDL-receptor induction (% of control),[1]; [8],308% (0.15 μM)
CC1CC(C)CN(S(=O)(=O)c2cc(C(=O)O)c(Cl)cc2Cl)C1 (stereo not drawn) [reference compound],"LDL-receptor induction in %, compared with control",[1]; 0.05 μM,94%
same,"LDL-receptor induction in %, compared with control",[1]; 0.15 μM,90%
same,"LDL-receptor induction in %, compared with control",[1]; 1.5 μM,90%
same,"LDL-receptor induction in %, compared with control",[1]; 4 μM,100%

# Reference: patent publication US6552048B2, “Sulfonylcarboxamide derivatives, process for their preparation and their use as pharmaceuticals” (Aventis Pharma Deutschland GmbH, priority 1999, dated 2003)
